Literature values in PMC8924334, “Synthesis of [^11C]carbonyl-labeled cyclohexyl (5-(2-acetamidobenzo[d]thiazol-6-yl)-2-methylpyridin-3-yl)carbamate ([^11C-carbonyl]PK68) as a potential PET tracer for receptor-interacting protein 1 kinase” (EJNMMI Radiopharmacy and Chemistry, 2022).
Where two headings read alike, the source gives them in different places.

Tests used:
RIPK1 [1] = system: RIPK1; design: method as in Hou et al. 2019; conditions: human cell line; ref Hou et al. 2019; cited from earlier work
RIPK1 [2] = system: RIPK1; design: method as in Hou et al. 2019; conditions: mouse cell line; ref Hou et al. 2019; cited from earlier work
melanoma (B16F10) = system: melanoma (B16F10); design: method as in Hou et al. 2019; conditions: B16F10-bearing mice; ref Hou et al. 2019; cited from earlier work
RIPK1 [3] = system: RIPK1; design: method as in Degterev et al. 2005; conditions: ref Degterev et al. 2005; cited from earlier work
RIPK1 [4] = system: RIPK1; design: method as in Harris et al. 2017; conditions: human cells; ref Harris et al. 2017; cited from earlier work
RIPK1 [5] = system: RIPK1; design: method as in Harris et al. 2017, 2019; conditions: rodents; ref Harris et al. 2017, 2019; cited from earlier work

Row | Structure (SMILES) | number of tumor metastases (melanoma (B16F10)) | EC50 (RIPK1 [3]) [nM] | other results
1 | CC(=O)Nc1nc2ccc(-c3cnc(C)c(NC(=O)OC4CCCCC4)c3)cc2s1 [PK68, cyclohexyl (5-(2-acetamidobenzo[d]thiazol-6-yl)-2-methylpyridin-3-yl)carbamate] | significant reduction in the number of tumor metastases |  | IC50 (RIPK1 [1]): 23 nM; IC50 (RIPK1 [2]): 13 nM
2 | CN1C(=O)C(Cc2c[nH]c3ccccc23)NC1=S (centres unmarked) [compound 1, Necrostatin-1] | significant reduction in the number of tumor metastases | 490 | 
3 | CN1C(=O)NC(Cc2c[nH]c3c(Cl)cccc23)C1=O (centres unmarked) [compound 2, 7-Cl-O-Nec-1] |  | 210 | 
4 | CN1C(=O)[C@@H](NC(=O)c2n[nH]c(Cc3ccccc3)n2)COc2ccccc21 [compound 3] |  |  | IC50 (RIPK1 [4]): 6.3 nM; IC50 (RIPK1 [5]): > 1000 nM
